This is an account of results in PMC12040169 (PLOS Biology, 2025).

A short description of this series: in vitro. The following applies: human, hela cells, % viability.
The viability is a read-out of living cells in per cent, often relative to untreated cells. For `O=C(NCc1cccs1)C1(Cc2ccc(-c3ccc(F)c(F)c3)cc2)CCOCC1` [CBK285533], the viability at 28.5 h, 10 µM worked out at 99.5%.

In the case of `Cc1csc(C(Cc2ccsc2)NC(=O)C2CC2C)n1` (stereo not shown) [CBK282226], the viability at 28.5 h, 10 µM was found to be 86.7%.

For `O=C(NCc1ccc(F)cc1)NC(=O)C1CCN(CCc2ccc(Br)cc2)CC1` [CBK034836], the viability at 28.5 h, 10 µM was 95.2%.

`O=C(Cn1nc(C(=O)O)c2ccccc2c1=O)c1ccc(S(=O)(=O)N2CCOCC2)cc1` [CBK296939]: the viability at 28.5 h, 10 µM amounted to 90.2%.

For `COc1cccc(-c2cc3c(=S)[nH]ccn3n2)c1` [CBK288437], the viability at 28.5 h, 10 µM came out at 88%.

Regarding `CN1CCN(c2cccc(-c3cc4ccccc4s3)n2)CC1` [CBK037019], the viability at 28.5 h, 10 µM came to 102%.

Turning to `COC(=O)c1c(NC(=O)C2CC(=O)NN2C)sc2c1CCC2` (stereo not shown) [CBK269218A], the viability at 28.5 h, 10 µM came out at 89.2%.

Consider `CS(=O)(=O)c1ccc(-c2c[nH]c([C@@H]3COCCN3C3CCCCC3)n2)cc1` [CBK289299], for which the viability at 28.5 h, 10 µM was determined as 102%.

For the compound `Cc1noc(C)c1CS(=O)(=O)Cc1ccc(Cl)cc1` [CBK034194], the viability at 28.5 h, 10 µM stood at 84.9%.

On to `CC(NC(=O)N1CCN(c2ccccc2)CC1)c1ccccc1` (stereo not shown) [CBK155207], for which the viability at 28.5 h, 10 µM was 99.3%.

Consider `CC(C)(C)OC(=O)CN1C(=O)N[C@@H]2CCCC[C@@H]21` [CBK003423], for which the viability at 28.5 h, 10 µM came to 84.8%.

Consider `CC1Cc2ccccc2N1C(=O)Cn1c(CCCO)nc2ccccc21` (stereo not shown) [CBK297548], for which the viability at 28.5 h, 10 µM turned out to be 86.1%.

Turning to `CCCc1ccc(S(=O)(=O)Nc2c(C(=O)OC)sc3ncccc23)cc1` [CBK050653], the viability at 28.5 h, 10 µM was 87.2%.

Turning to `CCNC(=O)N(C)c1c(CC)nc2c(OCC3CCCCC3)cccn12` [CBK147795], the viability at 28.5 h, 10 µM came out at 108%.

As to `O=C(N/N=C/c1cc2c(cc1Br)OCO2)c1ccc(CN2CCOCC2)cc1` [CBK262721], the viability at 28.5 h, 10 µM stood at 90.1%.

`Cc1c(C(=O)O)sc(S(=O)(=O)N2CCN(C(=O)CCC3CCCC3)CC2)c1C(=O)O` [CBK297121]: the viability at 28.5 h, 10 µM amounted to 117%.

Consider `COc1cc(NC(=O)Cn2c(-c3cncs3)nc3ccccc32)cc(OC)c1OC` [CBK267640], for which the viability at 28.5 h, 10 µM worked out at 97.2%.

With `CC(=O)N1CCN(c2ccc(NC(=O)c3cccc4c(Br)cccc34)cc2Cl)CC1` [CBK269624], the viability at 28.5 h, 10 µM came to 93.8%.

In the case of `OC1(Cn2cnc3ccccc32)CCN(CCc2ccccc2)CC1` [CBK284789], the viability at 28.5 h, 10 µM turned out to be 100%.

Consider `CC(C)(C)NC(=O)CCn1c(-c2cccnc2)cc2cccnc21` [CBK282691], for which the viability at 28.5 h, 10 µM was 109%.

`COc1cc(C(C)NC(=O)c2ccc(=O)[nH]n2)ccc1OC1CCCC1` (stereo not shown) [CBK298335]: the viability at 28.5 h, 10 µM was 89.7%.

Take `CCOc1cc(Cl)c(S(=O)(=O)NCCCN2CCOCC2)cc1Cl` [CBK268781]: the viability at 28.5 h, 10 µM is 87.9%.

In the case of `COc1ccc2nc(Nc3nc4c(s3)C(=O)CC(C)(C)C4)sc2c1` [CBK287481], the viability at 28.5 h, 10 µM was determined as 90.5%.

For `CC(=O)OC(c1ccccc1)c1nc2ccccc2[nH]1` (stereo not shown) [CBK110141], the viability at 28.5 h, 10 µM came to 97.1%.

Regarding `COc1ccccc1-c1cnc(N)c(N2CCC(C(=O)O)CC2)n1` [CBK064082], the viability at 28.5 h, 10 µM turned out to be 96.1%.

As for `CNCCOc1ccccc1O` [CBK023215C], the viability at 28.5 h, 10 µM was determined as 99.8%.

`NC(=O)c1ccc2[nH]c(-c3cscn3)nc2c1` [CBK017800]: the viability at 28.5 h, 10 µM came to 86%.

For `Cc1cc(NS(=O)(=O)c2ccc(Nc3nc(-c4ccc(Cl)cc4Cl)cs3)cc2)no1` [CBK267298], the viability at 28.5 h, 10 µM is 104%.

On to `O=C(CSc1nnc(Nc2ccccc2)n1-c1ccccc1)Nc1ccc2c(c1)COC2=O` [CBK268298], for which the viability at 28.5 h, 10 µM was 105%.

With `O=C(Cc1ccc(F)cc1)NCCn1nc(-c2ccco2)ccc1=O` [CBK283706], the viability at 28.5 h, 10 µM came out at 86.4%.

Consider `CCN(Cc1ccncc1)C(=O)Nc1ccc(N(CC)CC)cc1` [CBK155141], for which the viability at 28.5 h, 10 µM was 90.3%.

As to `O=C(NCc1cccs1)c1ccc(-c2ccoc2)nc1` [CBK156269], the viability at 28.5 h, 10 µM came to 106%.

Turning to `CCN(CC)S(=O)(=O)c1c(C)[nH]c(=O)[nH]c1=O` [CBK018721], the viability at 28.5 h, 10 µM is 94.1%.

On to `COc1ccc(NS(=O)(=O)c2ccc(NC(=O)c3nc4nc(C)cc(C(F)F)n4n3)cc2)cc1` [CBK266123], for which the viability at 28.5 h, 10 µM was found to be 91.4%.

On to `O=C(NCc1ccc(OC(F)(F)F)cc1)c1cnoc1-c1ccc(F)cc1` [CBK154952], for which the viability at 28.5 h, 10 µM turned out to be 100%.

As for `CCSc1nc(=O)c2c(n1C)NC(=O)CC2c1ccccc1` (stereo not shown) [CBK307541], the viability at 28.5 h, 10 µM is 107%.

With `O=C(NCC(c1ccccc1)c1ccccc1)N1CCN(Cc2ccccc2)CC1` [CBK155651], the viability at 28.5 h, 10 µM was found to be 83.9%.

Consider `COC(=O)[C@@H]1Cc2ncn(C)c2CN1S(=O)(=O)c1cccs1` [CBK288992], for which the viability at 28.5 h, 10 µM was found to be 104%.

Consider `CCOc1cc(/C=N/O)c(Br)cc1O` [CBK288359], for which the viability at 28.5 h, 10 µM stood at 87.4%.

With `COc1ccc(NC(=O)CSc2nc3c(c(-c4cccs4)c2C#N)CN(C)CC3)cc1OC` [CBK267444], the viability at 28.5 h, 10 µM is 103%.

Turning to `CCCCSc1nc(N)cc(N2CCCC(N3CCCC3=O)C2)n1` (stereo not shown) [CBK306995], the viability at 28.5 h, 10 µM was found to be 95.5%.

For the compound `CC(NC(=O)CC(C)n1cccn1)c1cc2cc(Cl)ccc2o1` (stereo not shown) [CBK281432], the viability at 28.5 h, 10 µM worked out at 92.6%.

`Cc1nc(-c2cccnc2)sc1C(=O)NC(C)C1CC2CCC1C2` (stereo not shown) [CBK281637]: the viability at 28.5 h, 10 µM is 84.2%.

In the case of `Cc1cc(-c2cc(C(=O)NN3CCN(C)CC3)c3cc(Cl)ccc3n2)c(C)s1` [CBK267738], the viability at 28.5 h, 10 µM was 102%.

On to `O=C(COc1ccc(NS(=O)(=O)c2ccc3oc4cc([N+](=O)[O-])ccc4c3c2)cc1)N1CCOCC1` [CBK268252], for which the viability at 28.5 h, 10 µM came out at 100%.

Turning to `FC(F)(F)c1ccnc(SCCc2ccccn2)c1` [CBK103709], the viability at 28.5 h, 10 µM is 105%.

`O=C(c1n[nH]c2c1CCCC2)N1CCc2ncc(Cl)cc2C1` [CBK284975]: the viability at 28.5 h, 10 µM is 93.4%.

Take `O=C(O)CNC(=O)c1ccccc1NC(=O)c1ccco1` [CBK286894]: the viability at 28.5 h, 10 µM turned out to be 90.2%.

On to `O/N=C/c1c[nH]c2ccccc12` [CBK168630], for which the viability at 28.5 h, 10 µM was 102%.

As to `CN(C)CCN1C(=O)C(O)=C(C(=O)c2ccc(S(=O)(=O)N3CCOCC3)cc2)C1c1ccc(Br)cc1` (stereo not shown) [CBK264693], the viability at 28.5 h, 10 µM amounted to 93.5%.

Take `O=S(=O)(Nc1ccc2nsnc2c1)c1ccc(Br)cc1C(F)(F)F` [CBK062233]: the viability at 28.5 h, 10 µM was 115%.

In the case of `COC(C)CN(C)C(=O)c1oc2cc(C)ccc2c1C` (stereo not shown) [CBK282043], the viability at 28.5 h, 10 µM came to 88.1%.

Take `Nc1nc(SCC(=O)NCc2ccco2)n[nH]1` [CBK266572]: the viability at 28.5 h, 10 µM was found to be 94%.

Take `CN(CC(=O)NCc1ccco1)C1CCCCCC1` [CBK254305]: the viability at 28.5 h, 10 µM stood at 97.3%.

On to `O=C1NCCNC(=O)C2(C/C=C/COc3ccccc31)CCN(C(=O)CCC1CCCC1)CC2` [CBK291995], for which the viability at 28.5 h, 10 µM came out at 118%.

In the case of `CCOC(=O)C1CCN(S(=O)(=O)c2cccs2)CC1` [CBK051137], the viability at 28.5 h, 10 µM is 92.4%.

Consider `CCC1=C(c2ccc(Cl)cc2)CCC(C(=O)NCCCN(C)C)C1C` (stereo not shown) [CBK012578], for which the viability at 28.5 h, 10 µM was determined as 74.1%.

Take `CC1(C)CC(NC(=O)C2CCN(S(C)(=O)=O)CC2)c2ccccc2O1` (stereo not shown) [CBK304404]: the viability at 28.5 h, 10 µM was 103%.

With `O=C(CCC1COc2ccccc2O1)N1CCN(Cc2ccccc2)CC1` (stereo not shown) [CBK269767], the viability at 28.5 h, 10 µM stood at 93.7%.

`COc1ccc(CN2CCC(Oc3nccnc3OCc3cc(C)on3)CC2)cc1` [CBK082953T]: the viability at 28.5 h, 10 µM is 93.7%.

For `CCCS(=O)(=O)c1ccc2[nH]c(NC(=O)c3cnc(-c4ccccc4)c(-c4ccncc4)c3)nc2c1` [CBK037426], the viability at 28.5 h, 10 µM amounted to 100%.

As to `N#Cc1c2c(c(NCCN3CCCCC3)n3c1nc1ccccc13)CCC2` [CBK263140], the viability at 28.5 h, 10 µM was found to be 114%.

Take `Cc1noc(NS(=O)(=O)c2ccc(NC(=O)c3cc(-c4ccccc4Cl)nc4ccccc34)cc2)c1C` [CBK296108]: the viability at 28.5 h, 10 µM was 80.6%.

Turning to `CN(C)S(=O)(=O)c1ccc(C(=O)Nc2ccc3ncn(C)c(=O)c3c2)cc1` [CBK268450], the viability at 28.5 h, 10 µM worked out at 103%.

For the compound `O=C(CCCN[C@H]1CC[C@](O)(c2ccc(F)cc2)CC1)c1ccc(F)cc1` [CBK023258C], the viability at 28.5 h, 10 µM was 90.7%.

On to `Cc1ccc(S(=O)(=O)N2CCN(CC(O)COc3ccc4ccccc4c3Cl)CC2)c(C)c1` (stereo not shown) [CBK266563], for which the viability at 28.5 h, 10 µM came out at 83%.

As to `CC(=O)Nc1cccc(-c2nccnc2N2CCCCC2CCO)c1` (stereo not shown) [CBK036591], the viability at 28.5 h, 10 µM is 101%.

On to `Cn1cccc1C1(O)CCCC2CN(C(=O)c3ccco3)CC21` (stereo not shown) [CBK284509], for which the viability at 28.5 h, 10 µM was 99.9%.

As to `Cc1nc(COC(=O)c2ccc(C#N)c(C)n2)cs1` [CBK297775], the viability at 28.5 h, 10 µM turned out to be 88.9%.

As for `Cc1cc(C)n(C2CCN(Cc3cn(C)c4cc(F)ccc34)CC2)n1` [CBK281806], the viability at 28.5 h, 10 µM was 112%.

For the compound `CC(=O)Nc1ccc(NC(=O)CC2SCCNC2=O)cc1` (stereo not shown) [CBK269921], the viability at 28.5 h, 10 µM worked out at 89.6%.

Take `CC(=O)N1c2ccc(C(O)CN3CCCC(C)C3)cc2CC1C` (stereo not shown) [CBK282922]: the viability at 28.5 h, 10 µM turned out to be 96.5%.

With `Cc1nn(C)cc1C(=O)O[C@H]1C[C@@H](c2ccc(F)cc2)N(C)C1=O` [CBK283615], the viability at 28.5 h, 10 µM amounted to 103%.

Take `Cc1ccc(C2Nc3ccccc3C3=NCCCN32)o1` (stereo not shown) [CBK284488]: the viability at 28.5 h, 10 µM turned out to be 103%.

On to `CCCC(=O)Nc1ccc(OCc2ncc(C(C)C)o2)c(C(C)=O)c1` [CBK305516], for which the viability at 28.5 h, 10 µM is 100%.

`CC1=C[C@@H](CO)[C@H](C(C)C)C[C@H]1Cc1nnc(-c2ccc(N(C)C)cc2)o1` [CBK289224]: the viability at 28.5 h, 10 µM stood at 65%.

For `COc1ccc(S(=O)(=O)Nc2c(C(=O)O)sc3ncccc23)cc1OC` [CBK049979], the viability at 28.5 h, 10 µM amounted to 87.3%.

In the case of `COc1ccc(CC(=O)N2CCCC(c3cc4ncccc4[nH]3)C2)cc1` (stereo not shown) [CBK283418], the viability at 28.5 h, 10 µM is 94.5%.

On to `O=C(Nc1snnc1-c1ccc(Cl)cc1)c1ccc(OC(F)(F)F)cc1` [CBK153247], for which the viability at 28.5 h, 10 µM came out at 70.5%.
